# Paper PMC3228873 (Journal of medicinal chemistry, 2011)
# Legend:
# TbrPDEB1 = TbrPDEB1 (Trypanosoma brucei, UniProt Q8WQX9); assay: TbrPDE assay, recombinant TbrPDEB1 catalytic domain; assay type: biochemical; conditions: for activity against TbrPDEB1 (in words): benchmark screening; for inhibition at 100 µM / inhibition at 10 µM: read-out: inhibition of TbrPDEB1; for IC50: read-out: TbrPDEB1 IC50, Table 1, 10% DMSO, 25 μM cAMP, ">> x μM" if <25% inh at x μM, "> x μM" if 25-50% inh at x μM
# TbrPDEB2 = TbrPDEB2 (Trypanosoma brucei brucei, UniProt Q38F42); assay: TbrPDE assay, recombinant TbrPDEB2 catalytic domain; assay type: biochemical
# [1] = tested on: Bloodstream forms of Trypanosoma brucei brucei strain 427; assay: Trypanosome cell culture assay; assay type: cell-based
compound,measurement,setting,value
"O=C(Nc1c(Cl)cncc1Cl)c1ccc(OC(F)F)c(OCC2CC2)c1 [Roflumilast (6), roflumilast]",activity against TbrPDEB1 (in words),TbrPDEB1,essentially inactive
"OCCN(CCO)c1nc(N2CCCCC2)c2nc(N(CCO)CCO)nc(N3CCCCC3)c2n1 [Dipyridamole (3), dipyridamole]",inhibition at 100 µM,TbrPDEB1,> 50%
"COc1cc2c(cc1OC)-c1c/c(=N\c3c(C)cc(C)cc3C)n(C)c(=O)n1CC2 [Trequinsin (2), trequinsin]",inhibition at 100 µM,TbrPDEB1,> 50%
CS(=O)(=O)Oc1ccc2c(NC(N)=O)c(C(=O)c3ccc(Cl)cc3Cl)oc2c1 [BAY 19-8004],IC50,TbrPDEB1,> 10 µM
same,IC50,"TbrPDEB2; read-out: TbrPDEB2 IC50, Table 1, 10% DMSO, 25 μM cAMP, "">> x μM"" if <25% inh at x μM, ""> x μM"" if 25-50% inh at x μM",> 10 µM
"COc1cc(C(=O)Nc2c(Cl)cncc2Cl)cc(OC)c1OC [Compound 9, N-(3,5-dichloropyridin-4-yl)-3,4,5-trimethoxybenzamide]",activity against TbrPDEB1 (in words),TbrPDEB1,without TbrPDEB1 or B2 activity
same,activity against TbrPDEB2 (in words),TbrPDEB2,without TbrPDEB1 or B2 activity
same,cellular (trypanocidal) activity (in words),[1],did not show cellular activity
"COc1ccc(C2CNC(=O)C2)cc1OC1CCCC1 (stereo not shown) [Rolipram (7), rolipram]",activity against TbrPDEB1 (in words),TbrPDEB1,essentially inactive
"COc1cccc(Nc2c(C(N)=O)cnc3c(C)cc(S(=O)(=O)c4cccc(C(=O)N(C)C)c4)cc23)c1 [GSK-256066, (5)]",inhibition at 10 µM,TbrPDEB1,≥ 50%
Cc1noc(/C(=C/c2cccc(-c3cc(C(C)(C)S(C)(=O)=O)cc4cccnc34)c2)c2ccc(S(C)(=O)=O)cc2)n1 [L-454560 (4)],inhibition at 10 µM,TbrPDEB1,≥ 50%
"COc1ccc(C(=O)Nc2c(Cl)cncc2Cl)cc1OC1CCCC1 [Compound 1, piclamilast]",inhibition of TbrPDEB1,"TbrPDEB1; single concentration, not stated for this compound",over 50%
CCCCOc1cc(CC2CNC(=O)N2)ccc1OC (stereo not shown) [RO 20-1724],IC50,TbrPDEB1,> 100 µM
